For experiment [1], the target named is T1, AefR.
T1 construct: His6-AefR (aefR gene in a pET-28b-derived vector)
As to the kind of experiment: ITC with purified His6-AefR; supported by EMSA (disrupts AefR-pmexEF-oprN interaction at […]). It counts as binding, Pseudomonas fluorescens. On the technique in general: Mobility shift assays separate free from complexed probe on a gel.

Experiment [2] has as its target T1, AefR. The experiment is described as above. It counts as binding, Pseudomonas fluorescens. The source holds these as a separate data set.

Like-named read-outs stand apart in the source and are kept apart here.

With `O=c1c(O)c(-c2ccc(O)c(O)c2)oc2cc(O)cc(O)c12` [quercetin], binding on AefR [1] was characterised by a dissociation constant (Kd) of 640 µM.

As for `O=C(CCc1ccc(O)cc1)c1c(O)cc(O)cc1O` [phloretin], binding on AefR [1] was put at a Kd of 2.79 µM. This Kd is about 230-fold lower than that of the compound before.

In the case of `O=c1cc(-c2ccc(O)cc2)oc2cc(O)cc(O)c12` [apigenin], the Kd (commonly a measure of binding affinity in units of concentration) on AefR [2] turned out to be 162 µM.

For the origin of these results see article PMC11915855, “The flavonoid-sensing regulator AefR is involved in modulating quorum sensing through repressing the MexEF-OprN efflux pump in Pseudomonas fluorescens” (mSystems, 2025).
